{
  "source": "patent US11291666B2",
  "about": "“Uses” (INTRA-CELLULAR THERAPIES, INC., priority 2016, dated 2022)",
  "key": {"[1]": {"system": "BV2 cells", "assay": "RT-qPCR of selected genes in BV2 cells with ITI-214, cyclase activators and PKA/PKG inhibitors", "type": "cell-based, mouse", "protocol": "In a further experiment a group of genes is selected for further analysis by RT-qPCR. For comparison, genes are analyzed which have been implicated in the scientific literature in microglial and astrocyte activation, including genes in the complement pathway.\nAll sample values are normalized to an average of 3 reference genes and to vehicle control (ΔΔCt). The error bars represent the mean+/−SEM (n=4). From left to right, for each cytokine grouping, the bars indicate samples treated with: LPS, 0.1 μM 214+LPS, 0.4 μM 214+LPS, 1.1 μM 214+LPS, 3.3 μM 214+LPS, 10 μM 214+LPS, for each particular gene shown on the X-axis. Significant changes between LPS and 10 μM ITI-214+LPS (A) and Vehicle and 10 μM ITI-214 (B) are marked on the X-axis gene names and are calculated using a one-way ANOVA. * p<0.05, **p<0.01, ***p<0.001, ****p<0.0001.\nIn one particular experiment, BV2 cells are treated with 10 μM forskolin (FSK) to activate adenylyl cyclases, 5 μM DEANO to activate soluble guanylyl cyclase, or 100 nM atrial natriuretic peptide (ANP) to activate particulate guanylyl cyclase. […] Upon combining forskolin with ITI-214 some of the effects of ITI-214 inhibition can be increased. […] However, LIF reverts to LPS-level expression when forskolin is added.\nNote that gene expression levels upon addition of PKA or PKG inhibitor to 10 μM ITI-214 are on the order of those relative to LPS treatment alone were reduced to levels equivalent to 3.3 μM ITI-214."}, "[2]": {"molecular_target": "T1, bovine retina PDE6 (Bos taurus, UniProt P11541+P23439)", "T1 construct": "bovine retina PDE6; from tissue; host or cells: bovine retina", "T1 sequence (P11541 2-856 limits assumed)": "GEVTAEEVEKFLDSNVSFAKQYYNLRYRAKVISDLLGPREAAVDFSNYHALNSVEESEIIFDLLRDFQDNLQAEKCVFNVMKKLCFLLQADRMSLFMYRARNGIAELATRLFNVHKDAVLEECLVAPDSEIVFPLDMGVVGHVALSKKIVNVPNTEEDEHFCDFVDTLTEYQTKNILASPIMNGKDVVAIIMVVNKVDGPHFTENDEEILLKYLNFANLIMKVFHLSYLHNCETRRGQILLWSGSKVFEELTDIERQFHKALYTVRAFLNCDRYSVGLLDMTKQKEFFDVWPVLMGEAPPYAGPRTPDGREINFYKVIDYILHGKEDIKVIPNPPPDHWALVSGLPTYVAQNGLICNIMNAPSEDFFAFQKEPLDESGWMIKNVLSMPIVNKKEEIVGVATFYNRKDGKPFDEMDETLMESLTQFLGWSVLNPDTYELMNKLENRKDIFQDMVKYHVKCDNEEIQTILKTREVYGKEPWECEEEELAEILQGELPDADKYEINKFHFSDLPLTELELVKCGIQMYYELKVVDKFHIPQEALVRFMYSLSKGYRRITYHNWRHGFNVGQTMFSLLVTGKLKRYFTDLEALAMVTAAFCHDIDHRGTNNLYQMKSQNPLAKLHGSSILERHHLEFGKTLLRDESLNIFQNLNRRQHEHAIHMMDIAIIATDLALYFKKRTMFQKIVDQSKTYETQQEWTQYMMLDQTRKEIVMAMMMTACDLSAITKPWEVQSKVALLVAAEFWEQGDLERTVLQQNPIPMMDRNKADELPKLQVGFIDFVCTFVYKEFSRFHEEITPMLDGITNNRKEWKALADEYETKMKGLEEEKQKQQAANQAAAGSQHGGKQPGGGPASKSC", "T1 sequence (P23439 2-850 limits assumed)": "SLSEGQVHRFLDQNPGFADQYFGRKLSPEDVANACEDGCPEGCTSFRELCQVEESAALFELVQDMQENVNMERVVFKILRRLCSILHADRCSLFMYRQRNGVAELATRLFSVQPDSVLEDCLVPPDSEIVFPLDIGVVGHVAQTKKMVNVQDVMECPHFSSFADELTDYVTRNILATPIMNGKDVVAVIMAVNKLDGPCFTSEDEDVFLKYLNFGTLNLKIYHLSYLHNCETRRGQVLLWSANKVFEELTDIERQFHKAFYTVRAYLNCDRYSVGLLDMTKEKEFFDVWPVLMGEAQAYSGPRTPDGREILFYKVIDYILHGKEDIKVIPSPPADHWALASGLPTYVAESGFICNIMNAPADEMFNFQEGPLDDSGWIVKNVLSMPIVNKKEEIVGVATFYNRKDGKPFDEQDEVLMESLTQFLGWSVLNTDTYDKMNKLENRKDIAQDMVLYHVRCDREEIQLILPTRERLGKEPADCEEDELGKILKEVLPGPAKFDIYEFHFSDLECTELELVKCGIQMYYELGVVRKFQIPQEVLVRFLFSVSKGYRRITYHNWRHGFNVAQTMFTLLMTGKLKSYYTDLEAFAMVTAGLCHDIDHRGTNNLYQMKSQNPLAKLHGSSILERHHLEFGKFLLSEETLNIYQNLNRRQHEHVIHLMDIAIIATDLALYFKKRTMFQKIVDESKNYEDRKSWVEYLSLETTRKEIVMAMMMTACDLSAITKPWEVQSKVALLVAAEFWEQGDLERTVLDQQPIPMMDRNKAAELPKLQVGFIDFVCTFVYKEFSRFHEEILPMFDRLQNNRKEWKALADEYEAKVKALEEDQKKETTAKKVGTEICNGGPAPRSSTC", "assay": "PDE selectivity, bovine retina PDE6", "type": "biochemical", "protocol": "One unit of enzyme will hydrolyze […] of 3′,5′-cAMP to 5′-AMP per min at pH 7.5 at 30° C. […] 99 μl of diluted enzyme solution is added into each well in a flat bottom 96-well polystyrene plate to which 1 μι of test compound dissolved in 100% DMSO is added."}, "[3]": {"system": "BV2 cells", "assay": "Quantitative PCR of inflammatory cytokine mRNA in LPS-treated BV2 cells", "type": "cell-based, mouse", "details": "LPS 10 microgram/ml, Compound 214 10 microgram/ml, FIG. 2"}},
  "note": "Entries after “also recorded” stand apart in the source; their conditions may differ.",
  "data": [
    {"compound": "CN1C(=O)c2c(nn(Cc3ccc(-c4cccc(F)n4)cc3)c2Nc2ccccc2)N2C1=N[C@@H]1CCC[C@@H]12", "note": "[Compound 214]", "values": [
      {"measurement": "induction of Cx3cr1 by LPS", "setting": "[1]", "result": "significantly reduced"},
      {"measurement": "modulation of transcriptional responses to LPS", "setting": "[1]; 50 ng/ml LPS, 0.1-10 μM, FIG. 10a", "result": "dose dependent"},
      {"measurement": "ITI-214 responsive transcripts (Cx3cr1, Csf2, TNF, Cc14, MAPKAPK2, PtpN6, Ccr1) with concomitant forskolin", "setting": "[1]; LPS, 10 μM forskolin, FIG. 11a", "result": "further down- or up-modulated"},
      {"measurement": "impact of ITI-214 on addition of PKA inhibitor cAMPS-Rp or PKG inhibitor -8-Br-PET-cGMPS", "setting": "[1]; LPS, inhibitors 100 μM, FIG. 11b", "result": "Moderate reduction"},
      {"measurement": "basal expression of Cx3cr1", "setting": "[1]; in the absence of LPS", "result": "significantly reduced"},
      {"measurement": "LIF expression", "setting": "[1]; with LPS, FIG. 11a", "result": "further increased"},
      {"measurement": "IC50", "setting": "[2]", "result": 324, "unit": "nM"},
      {"measurement": "LPS-induced increase in expression of IL1β (mRNA, quantitative PCR)", "setting": "[3]", "result": "suppresses; also recorded: significantly blunts"}
    ]}
  ]
}
